{
  "source": "patent US20230295149A1",
  "about": "“MONOBACTAM COMPOUNDS, THEIR PREPARATION AND USE AS ANTIBACTERIAL AGENTS” (NINGXIA ACADEMY OF AGRICULTURE AND FORESTRY SCIENCES, priority 2020, published 2023)",
  "assay_in_all_cases": "MIC determination, broth microdilution",
  "format_in_all_cases": "cell-based",
  "key": {"A. baumannii 19606": {"system": "A. baumannii 19606", "details": "Acinetobacter baumannii, 37° C., 18-24 hours, read-out: Strain8 MIC", "protocol": "(§1) Compounds of this invention were tested for antimicrobial activity by determining minimum inhibitory concentrations (MICs, in μg/mL) using the broth microdilution method according to the guidelines of the Clinical Laboratories and Standards Institute (“Methods for Dilution Antimicrobial Susceptibility Tests for Bacteria that Grow Aerobically”, Approved standard, 7th ed., Clinical and Laboratory Standards Institute (CLSI) Document M7-A8, Wayne, Pa., USA, 2009.). Test compounds were dissolved in DMSO. The compounds were then diluted in microbial growth medium (Mueller Hinton Broth II, cation adjusted) resulting in a final concentration range of 0.063-64 μg/mL in serial two-fold dilution. In all cases the final DMSO concentration was less than 0.5%. Bacteria were added to 96-well microtitre plates containing the two-fold dilutions of the compounds; the final cell density was approximately 5×10^5 colony forming units/mL (CFU/mL). Plates were incubated at 37° C. for 18-24 hours and read visually. The MIC, i.e. the lowest concentration of the test compound that inhibited visible growth of the bacteria, was recorded. The same assay conditions were used when the compounds of this invention were tested in combination with—lactamase inhibitors. While the compounds of this invention were serially diluted as described above, a constant concentration of the inhibitor of 4 mg/L was used. Bacterial strains that were used to evaluate the antimicrobial activity using the MIC determination included but were not limited to E. coli clinical isolate, E. coli 8739, K. pneumoniae clinical isolate, K. pneumoniae 700603, E. cloacae clinical isolate, E. cloacae 700323, A. baumannii clinical isolate, A. baumannii 19606, P. aeruginosa clinical isolate, P. aeruginosa 9027."}, "[1]": {"system": "A. baumannii clinical isolate", "details": "Acinetobacter baumannii, 37° C., 18-24 hours, read-out: Strain 7 MIC", "protocol": "as §1"}, "E. cloacae 700323": {"system": "E. cloacae 700323", "details": "Enterobacter cloacae, 37° C., 18-24 hours, read-out: Strain 6 MIC", "protocol": "as §1"}, "[2]": {"system": "E. cloacae clinical isolate", "details": "Enterobacter cloacae, 37° C., 18-24 hours, read-out: Strain5 MIC", "protocol": "as §1"}, "E. coli 8739": {"system": "E. coli 8739", "details": "Escherichia coli, 37° C., 18-24 hours, read-out: Strain 2 MIC", "protocol": "as §1"}, "E. coli clinical isolate": {"system": "E. coli clinical isolate", "details": "Escherichia coli, 37° C., 18-24 hours, read-out: Strain 1 MIC", "protocol": "as §1"}, "K. pneumoniae 700603": {"system": "K. pneumoniae 700603", "details": "Klebsiella pneumoniae, 37° C., 18-24 hours, read-out: Strain 4 MIC", "protocol": "as §1"}, "[3]": {"system": "K. pneumoniae clinical isolate", "details": "Klebsiella pneumoniae, 37° C., 18-24 hours, read-out: Strain 3 MIC", "protocol": "as §1"}, "P. aeruginosa 9027": {"system": "P. aeruginosa 9027", "details": "Pseudomonas aeruginosa, 37° C., 18-24 hours, read-out: Strain 10 MIC", "protocol": "as §1"}, "[4]": {"system": "P. aeruginosa clinical isolate", "details": "Pseudomonas aeruginosa, 37° C., 18-24 hours, read-out: Strain 9 MIC", "protocol": "as §1"}},
  "data": [
    {"smiles": "CC1(C)[C@H](NC(=O)/C(=N\\O[C@@H](COc2ccc(C(=N)N[C@H]3CCCNC3)cc2)C(=O)O)c2nc(N)sc2Cl)C(=O)N1OS(=O)(=O)O", "note": "[Example 11, (S)-2-((((Z)-1-(2-Amino-5-chlorothiazol-4-yl)-2-(((S)-2,2-dimethyl-4-oxo-1-(sulfooxy)azetidin-3-yl)amino)-2-oxoethylidene)amino)oxy)-3-(4-(N—((S)-piperidin-3-yl)carbamimidoyl)phenoxy)propanoic acid]", "values": [
      {"measurement": "MIC", "setting": "A. baumannii 19606", "result": 32, "unit": "µg/mL"},
      {"measurement": "MIC", "setting": "[1]", "result": 16, "unit": "µg/mL"},
      {"measurement": "MIC", "setting": "E. cloacae 700323", "result": 64, "unit": "µg/mL"},
      {"measurement": "MIC", "setting": "[2]", "result": 32, "unit": "µg/mL"},
      {"measurement": "MIC", "setting": "E. coli 8739", "result": 0.5, "unit": "µg/mL"},
      {"measurement": "MIC", "setting": "E. coli clinical isolate", "result": 0.5, "unit": "µg/mL"},
      {"measurement": "MIC", "setting": "K. pneumoniae 700603", "result": 64, "unit": "µg/mL"},
      {"measurement": "MIC", "setting": "[3]", "result": 32, "unit": "µg/mL"},
      {"measurement": "MIC", "setting": "P. aeruginosa 9027", "result": 2, "unit": "µg/mL"},
      {"measurement": "MIC", "setting": "[4]", "result": 4, "unit": "µg/mL"}
    ]},
    {"smiles": "CC1(C)[C@H](NC(=O)/C(=N\\O[C@@H](COc2ccc(C(=N)N[C@@H]3CCNC3)cc2)C(=O)O)c2nsc(N)n2)C(=O)N1OS(=O)(=O)O", "note": "[Example 12, (S)-2-((((Z)-1-(5-Amino-1,2,4-thiadiazol-3-yl)-2-(((S)-2,2-dimethyl-4-oxo-1-(sulfooxy)azetidin-3-yl)amino)-2-oxoethylidene)amino)oxy)-3-(4-(N—((R)-pyrrolidin-3-yl)carbamimidoyl)phenoxy)propanoic acid]", "values": [
      {"measurement": "MIC", "setting": "A. baumannii 19606", "result": 8, "unit": "µg/mL"},
      {"measurement": "MIC", "setting": "[1]", "result": 16, "unit": "µg/mL"},
      {"measurement": "MIC", "setting": "E. cloacae 700323", "result": 8, "unit": "µg/mL"},
      {"measurement": "MIC", "setting": "[2]", "result": 8, "unit": "µg/mL"},
      {"measurement": "MIC", "setting": "E. coli 8739", "result": 1, "unit": "µg/mL"},
      {"measurement": "MIC", "setting": "E. coli clinical isolate", "result": 8, "unit": "µg/mL"},
      {"measurement": "MIC", "setting": "K. pneumoniae 700603", "result": 8, "unit": "µg/mL"},
      {"measurement": "MIC", "setting": "[3]", "result": 4, "unit": "µg/mL"},
      {"measurement": "MIC", "setting": "P. aeruginosa 9027", "result": 2, "unit": "µg/mL"},
      {"measurement": "MIC", "setting": "[4]", "result": 2, "unit": "µg/mL"}
    ]}
  ]
}
